# Values of other authors in patent US6962905B1, “Pharmaceutical formulation comprising a low molecular weight thrombin inhibitor and its prodrug” (AstraZeneca AB, priority 1999, dated 2005).
# Tested on: DVT after total hip/knee replacement or major surgery
# Conditions: background statements from literature
row,Molecule,effect on incidence of DVT after surgery
1,hirudin,superior to unfractionated heparin and LMWH
2,CC(=O)CC(c1ccccc1)c1c(O)c2ccccc2oc1=O (stereo not drawn) [warfarin],effective in reducing DVT
3,CC(=O)Oc1ccccc1C(=O)O [aspirin],limited efficacy
